These results are taken from patent US9701646B2, “Small molecule inhibitors of PI3-kinase signaling” (Tufts University, priority 2013, dated 2017).

Where two headings read alike, the source gives them in different places. A value given as a limit tells only on which side of the number the result lay.

Series [1] is described as follows: Micellar drug release by dialysis. Format: physicochemical. Particulars: 37° C. The procedure:
Drug-loaded micelles were analyzed for their in vitro drug release profile at 37° C. in 1×PBS pH 7.4 over 48 hrs. Micelles were prepared as described previously. 500 μL of drug-loaded micelles were aliquoted into Spectra/Pro® regenerated cellulose dialysis membranes with a MWCO of 1,000 Da and dialyzed against a large excess of 1×PBS pH 7.4. At predetermined times, dialysis bags were opened and aliquots of sample were taken and diluted with 200 μL acetonitrile. Drug concentration was determined by HPLC using previously described methods.

Series [2] in a line: Micellar drug loading by reverse phase HPLC. The class given is physicochemical. Particulars: PEG-PE micelles, PEG-PE 13.07 mg/mL, n = 3 with SD. Here is the method: Drug incorporation efficiency was measured by reverse phase HPLC using an Xbridge C18 ([…]) column (Waters Corporation, Milford, Mass.) on a Hitachi Elite LaChrom HPLC with autosampler (Pleasanton, Calif.). The HPLC method was modified from previously published method. Skidan I et al., J Chromatogr B Analyt Technol Biomed Life Sci 879:1610-1616 (2011). The mobile phase consisted of either 70:30 acetonitrile:water (DM-PIT-1) or 60:40 acetonitrile:water (NCL-176, NCL-179, NCL-198, NCL-240) with a flow rate of 1 mL/min. Detection of drug was performed at a wavelength corresponding to a peak on the absorption spectrum (DM-PIT-1: 320 nm, NCL-176: 260 nm, NCL-179: 295 nm, NCL-198: 295 nm, NCL-240: 300 nm). Sample injections were kept constant at 50 μL and the sample runtime was 10 min. Concentration of drug was determined by measuring the area under curve of the peak. Standard curves of stock drug in acetonitrile from concentrations of 10 μg/mL to 15 ng/mL were used to determine incorporation of drug in micelles. 5 μL of dialyzed drug-loaded micelles were diluted in 495 μL acetonitrile to destroy micelles.

The subject of series [3] is A2780 human ovarian cancer cells. Nature of the series: Cell viability of A2780 cells, ATP assay. The class given is cell-based. The conditions noted are these: A2780, 24 h; for EC50: Homo sapiens. The procedure:
A2780 human ovarian cancer cells were maintained in culture at 37° C., 5% CO2, complete medium for 24 h in the presence of various final concentrations of DM-PIT-1, YK-NCL-176, YK-NCL-198, or NK-YCL-240, each in DMSO, with or without 1 μg/mL TRAIL. DMSO alone was used as a negative control. Following the incubation, cell viability was measured using an ATP assay.
A2780 human ovarian cancer cells were maintained in culture at 37° C., 5% CO2, complete medium for 24 h in the presence of various final concentrations of DM-PIT-1, YK-NCL-217, YK-NCL-218, NK-YCL-219, YK-NCL-220, YK-NCL-234, or YK-NCL-241, each in DMSO, with or without 1 μg/mL TRAIL. DMSO alone was used as a negative control. Following the incubation, cell viability was measured using an ATP assay.

Series [4] has as its system U87MG human glioblastoma cells. Put plainly: Cell viability of U87MG cells, ATP assay. The class given is cell-based. Particulars: Homo sapiens, U-87 MG, 24 h. Here is the method:
U87MG human glioblastoma cells were maintained in culture at 37° C., 5% CO2, complete medium for 24 h in the presence of various final concentrations of YK-NCL-176, YK-NCL-177, YK-NCL-178, YK-NCL-179, YK-NCL-180, YK-NCL-183, YK-NCL-184, YK-NCL-185, YK-NCL-186, YK-NCL-187, YK-NCL-188, YK-NCL-189, YK-NCL-190, YK-NCL-191, YK-NCL-192, YK-NCL-193, YK-NCL-194, YK-NCL-195, YK-NCL-196, YK-NCL-197, NK-YCL-198, or YK-NCL-199, each in DMSO, with or without 1 μg/mL TRAIL. DMSO alone was used as a negative control. Following the incubation, cell viability was measured using an ATP assay.

The test system of series [5] is A2780 ovarian carcinoma. Nature of the series: A2780 cell viability, CellTiter-Blue, free and micellar formulations. The class given is cell-based, human. The conditions noted are these: A2780, 24 h, free compound. The procedure: Cell viability of A2780 ovarian carcinoma was measured using CellTiter-Blue® (Promega, Madison, Wis.) viability assay. Briefly, cells were seeded in 96-well plates according to proper cell densities (3,000-5,000 cells). After 24 h incubation in 5% CO2 at 37° C., cells were treated with formulations at various concentrations for 24 h in serum complete media. After 24 h treatment, media was removed, the wells were washed with serum complete media and replaced with 50 μL media and 10 μL CellTiter-Blue®. Cell viability was evaluated after 4 h of incubation at 37° C. at 5% CO2 by measuring the fluorescence (ex. 550 nm, em. 590 nm) using a Synergy HT multi-detection microplate reader (Biotek, Winooski, Vt.).
Background: Alamar Blue is a resazurin reagent that responds to reducing activity.

[6] abbreviates: in DMSO, without TRAIL, read-out: EC50 alone.
Setting [7] is: with 1 μg/mL TRAIL, read-out: EC50 with TRAIL.

Consider `Cc1cc(C)cc(C(=O)NC(=S)Nc2cc([N+](=O)[O-])ccc2O)c1` [DM-PIT-1, N-[(2-hydroxy-5-nitrophenyl)amino]carbonothioyl-3,5-dimethylbenzamide, reference compound], for which the “drug released from micelles” value in series [1] (1×PBS pH 7.4, at 10 h) is listed as “completely released”. Besides, in series [2], the “Loading Eff.” value is “slightly lower loading”. In addition, in series [3] (alone), the “concentration at which cell viability was reduced by at least 50 percent” value was determined as 25 µM. Also, the “cell viability in combination with TRAIL” value in series [3] (with 1 μg/mL TRAIL, versus compound alone) is “further reduced cell viability”. Further, the EC50 stood at 30.5 µM in series [3] (setting [6]) and 18.7 µM in series [3] (setting [7]).

Regarding `COc1ccc(Cl)cc1-n1nncc1C(=O)c1ccccc1` [YK-NCL-177], the EC50 in series [4] (setting [6]) and in series [4] (setting [7]) was more than 100 µM in each case.

Take `COc1ccc(Cl)cc1-n1cc(C(=O)c2ccccc2)nn1` [YK-NCL-178]: the EC50 in series [4] (setting [6]) and in series [4] (setting [7]) was more than 100 µM throughout.

Regarding `Oc1ccc(Cl)cc1-n1cc(C(O)(c2ccccc2)c2cn(-c3cc(Cl)ccc3O)nn2)nn1` [YK-NCL-179, 2,2′-(4,4′-(hydroxy(phenyl)methylene)bis(1H-1,2,3-triazole-4,1-diyl))bis(4-chlorophenol)], in series [1] (1×PBS pH 7.4, after 48 h), the “drug released from micelles” value is 40%. For the same molecule, the 50% effective concentration (EC50) in series [4] (setting [6]) was 36.7 µM; in series [4] (setting [7]), 20.4 µM. The “cytotoxicity as free compound compared to DM-PIT-1” value in series [5] is reported as “improved cytotoxicity properties”.

For the molecule `COc1ccc(Cl)cc1-n1cc(C(O)(c2ccccc2)c2cn(-c3cc(Cl)ccc3OC)nn2)nn1` [YK-NCL-180], the EC50 in series [4] (setting [6]) and in series [4] (setting [7]) was more than 100 µM each time.

Consider `Cc1cc(C)cc(C(=O)c2cn(-c3ccc(Cl)cc3O)nn2)c1` [YK-NCL-183], for which the EC50 was more than 100 µM in series [4] (setting [6]) and 64.4 µM in series [4] (setting [7]).

As to `Cc1ccc(O)c(-n2cc(C(=O)c3ccccc3)nn2)c1` [YK-NCL-184], the concentration giving a half-maximal response (EC50) in series [4] (setting [6]) and in series [4] (setting [7]) was more than 100 µM each time.

Consider `Cc1cccc(O)c1-n1cc(C(=O)c2ccccc2)nn1` [YK-NCL-185], for which the EC50 in series [4] (setting [6]) was found to be 8.1 µM; in series [4] (setting [7]) it was 8 µM.

For the molecule `O=C(c1ccc2ccccc2c1)c1cn(-c2cc(Cl)ccc2O)nn1` [YK-NCL-186], the EC50 in series [4] (setting [6]) and in series [4] (setting [7]) was more than 100 µM throughout.

With `Cc1cccc(O)c1-n1cc(C(=O)c2ccc3ccccc3c2)nn1` [YK-NCL-187], the 50% effective concentration (EC50) was 85.2 µM in series [4] (setting [6]) and 74.9 µM in series [4] (setting [7]).

Turning to `Cc1ccc(O)c(-n2cc(C(=O)c3ccc4ccccc4c3)nn2)c1` [YK-NCL-188], the EC50 in series [4] (setting [6]) and in series [4] (setting [7]) was more than 100 µM each time.

As to `O=C(c1ccc2ccccc2c1)c1cn(-c2ccc([N+](=O)[O-])cc2O)nn1` [YK-NCL-189], the EC50 in series [4] (setting [6]) and in series [4] (setting [7]) was more than 100 µM throughout.

As to `Cc1cc(C)cc(C(=O)c2cn(-c3cc(Cl)ccc3O)nn2)c1` [YK-NCL-190], the results for the half-maximal effective concentration (EC50) in series [4] (setting [6]) and in series [4] (setting [7]) were 57.8 µM and 30.6 µM, respectively.

In the case of `O=C(c1ccccc1)c1cn(-c2ccc(Cl)cc2O)nn1` [YK-NCL-191], the values for the half-maximal effective concentration (EC50) in series [4] (setting [6]) and in series [4] (setting [7]) were 48.9 µM and 42.3 µM, respectively.

For the molecule `Cc1cc(C)cc(C(=O)c2cn(-c3c(C)cccc3O)nn2)c1` [YK-NCL-192], the values for the concentration giving a half-maximal response (EC50) in series [4] (setting [6]) and in series [4] (setting [7]) were 104 µM and 98.4 µM, respectively.

For the molecule `Cc1cc(C)cc(C(=O)c2cn(-c3cc(C)ccc3O)nn2)c1` [YK-NCL-193], the concentration for a half-maximal effect (EC50) in series [4] (setting [6]) and in series [4] (setting [7]) was more than 100 µM each time.

Take `Cc1cc(C)cc(C(=O)c2cn(-c3ccc([N+](=O)[O-])cc3O)nn2)c1` [YK-NCL-194]: the values for the half-maximal effective concentration (EC50) in series [4] (setting [6]) and in series [4] (setting [7]) were 89.1 µM and 70.5 µM, respectively.

`CC(C)c1ccc(C(=O)c2cn(-c3cc(Cl)ccc3O)nn2)cc1` [YK-NCL-195]: the EC50 worked out at 64.1 µM in series [4] (setting [6]) and 41.6 µM in series [4] (setting [7]).

As for `Cc1cccc(O)c1-n1cc(C(=O)c2ccc(C(C)C)cc2)nn1` [YK-NCL-196], the EC50 in series [4] (setting [6]) and in series [4] (setting [7]) was more than 100 µM each time.

`Cc1ccc(O)c(-n2cc(C(=O)c3ccc(C(C)C)cc3)nn2)c1` [YK-NCL-197]: the EC50 in series [4] (setting [6]) and in series [4] (setting [7]) was more than 100 µM throughout.

As for `CC(C)c1ccc(C(=O)c2cn(-c3ccc([N+](=O)[O-])cc3O)nn2)cc1` [YK-NCL-199], the EC50 is more than 100 µM in series [4] (setting [6]) and 95.3 µM in series [4] (setting [7]).

For `Cc1cccc(O)c1-n1cc(C(O)(c2cc(C(F)(F)F)cc(C(F)(F)F)c2)c2cn(-c3c(C)cccc3O)nn2)nn1` [YK-NCL-217], the 50% effective concentration (EC50) came to 50.9 µM in series [3] (setting [6]) and 13.5 µM in series [3] (setting [7]).

Take `Cc1cccc(O)c1-n1cc(C(O)(c2ccccc2)c2cn(-c3c(C)cccc3O)nn2)nn1` [YK-NCL-218]: the results for the EC50 in series [3] (setting [6]) and in series [3] (setting [7]) were more than 100 µM and 22.8 µM, respectively.

Take `Cc1ccc(O)c(-n2cc(C(O)(c3ccccc3)c3cn(-c4cc(C)ccc4O)nn3)nn2)c1` [YK-NCL-219]: the EC50 came out at 24.1 µM in series [3] (setting [6]) and 9.2 µM in series [3] (setting [7]).

For `Cc1cc(C)cc(C(O)(c2cn(-c3c(C)cccc3O)nn2)c2cn(-c3c(C)cccc3O)nn2)c1` [YK-NCL-220], the EC50 in series [3] (setting [6]) is more than 100 µM; in series [3] (setting [7]) it was 16.9 µM.

Turning to `O=C(NCc1cn(-c2cc(Cl)ccc2O)nn1)c1cc(C(F)(F)F)cc(C(F)(F)F)c1` [YK-NCL-234], the half-maximal effective concentration (EC50) came to 16.2 µM in series [3] (setting [6]) and 14 µM in series [3] (setting [7]).

As for `Oc1ccc(Cl)cc1-n1cc(CC(O)(c2ccccc2)c2cn(-c3cc(Cl)ccc3O)nn2)nn1` (stereo not shown) [YK-NCL-241], the concentration giving a half-maximal response (EC50) in series [3] (setting [6]) and in series [3] (setting [7]) was more than 100 µM each time.

B1: TRAIL: Tumor necrosis factor (TNF)-related apoptosis-inducing ligand; recombinant His6-tagged human TRAIL produced in E. coli (protein, UniProt P50591 1-281, looked up)
Tumor necrosis factor ligand …: MAMMEVQGGPSLGQTCVLIVIFTVLLQSLCVAVTYVYFTNELKQMQDKYSKSGIACFLKEDDSYWDPNDEESMNSPCWQVKWQLRQLVRKMILRTSEETISTVQEKQQNISPLVRERGPQRVAAHITGTRGRSNTLSSPNSKNEKALGRKINSWESSRSGHSFLSNLHLRNGELVIHEKGFYYIYSQTYFRFQEEIKENTKNDKQMVQYIYKYTSYPDPILLMKSARNSCWSKDAEYGLYSIYQGGIFELKENDRIFVSVTNEHLIDMDHEASFFGAFLVG
modifications: His6 tag
notes: Tumor necrosis factor (TNF)-related apoptosis-inducing ligand; recombinant His6-tagged human TRAIL produced in E. coli
Consider B1, for which the “effect on cell viability” value in series [3] (alone, 1 μg/mL) is recorded as “essentially no effect on cell viability”.

Usually EC50 stands for the concentration giving half of the maximal effect.
